The results in this text go back to patent US7767819B2, “Thiazolylimidazole derivatives and their use as inhibitors of microsomal triglyceride transfer protein” (Merck Patent GmbH, priority 2004, dated 2010).

Molecules are shown by their SMILES.

Test [1] addresses T1, microsomal triglyceride transfer protein (MTP) (Mesocricetus auratus, UniProt P55158).
T1 construct: The supernatant comprising the soluble MTP is dialysed against Tris/HCl 150 mM; from tissue; host or cells: golden hamster liver microsomes, deoxycholate-solubilised supernatant
T1 sequence (P55158 19-895): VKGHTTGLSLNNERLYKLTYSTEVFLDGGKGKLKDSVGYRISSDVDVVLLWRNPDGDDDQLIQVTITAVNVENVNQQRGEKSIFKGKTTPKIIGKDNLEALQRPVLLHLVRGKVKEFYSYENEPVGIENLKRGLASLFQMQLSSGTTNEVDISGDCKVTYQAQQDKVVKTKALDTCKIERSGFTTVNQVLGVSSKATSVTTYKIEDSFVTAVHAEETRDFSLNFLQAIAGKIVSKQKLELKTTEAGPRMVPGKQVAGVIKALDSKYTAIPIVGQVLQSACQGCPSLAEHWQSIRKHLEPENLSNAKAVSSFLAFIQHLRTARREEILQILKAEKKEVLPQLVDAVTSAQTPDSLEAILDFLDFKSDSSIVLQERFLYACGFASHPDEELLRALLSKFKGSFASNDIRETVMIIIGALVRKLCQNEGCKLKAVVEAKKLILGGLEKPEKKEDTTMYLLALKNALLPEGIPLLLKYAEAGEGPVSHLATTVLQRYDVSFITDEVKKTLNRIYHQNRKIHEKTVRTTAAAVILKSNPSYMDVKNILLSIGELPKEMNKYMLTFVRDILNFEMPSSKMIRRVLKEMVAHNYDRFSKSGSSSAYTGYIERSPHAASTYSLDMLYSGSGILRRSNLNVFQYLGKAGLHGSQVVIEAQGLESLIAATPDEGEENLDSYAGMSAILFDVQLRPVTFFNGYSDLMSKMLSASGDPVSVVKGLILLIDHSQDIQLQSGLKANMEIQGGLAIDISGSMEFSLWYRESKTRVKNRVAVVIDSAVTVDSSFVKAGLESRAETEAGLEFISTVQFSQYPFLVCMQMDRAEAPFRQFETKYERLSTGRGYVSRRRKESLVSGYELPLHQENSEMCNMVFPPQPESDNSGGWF
The test can be described thus: Inhibition of MTP activity (transfer of [3H]-triolein from donor liposomes to biotinylated LDL, SPA). The format is biochemical. Particulars: MTP from golden hamster liver microsomes; incubation 18-24 hours at 37° C.; read-out: IC50 (concentration that allows a 50% inhibition of MTP). How it is done:
Analysis of the Inhibition of MTP Activity
The inhibition of the activity of microsomal triglyceride transfer protein (MTP) was tested by using the following operating protocol.
The inhibition of MTP activity with a compound can be quantified by observing the inhibition of the transfer of a labelled triglyceride, from a donor particle to an acceptor particle, in the presence of MTP. The procedure for the preparation of MTP is based on the method by Wetterau and Zilversmit (Biochem. Biophys. Acta (1986) 875, 610). A few grams of golden hamster liver are taken and then rinsed several times in a 250 mM sucrose solution at 0° C. All the following steps proceed at +4° C. A homogenate at a concentration of 50% in 250 mM sucrose is prepared using a Teflon mill and then centrifuged for 10 minutes at 10 000×g at +4° C. The supernatant is then centrifuged at 105 000×g for 75 minutes at +4° C. The supernatant is discarded and the microsomal pellet is taken up in 3 ml (per g of starting liver) of Tris/HCl 150 mM pH 8.0. 1 ml aliquot fractions are stored at −80° C. until the time of use.
After thawing a fraction of microsomes (1 ml), 12 ml of refrigerated Tris/HCl 50 mM, KCl 50 mM, MgCl2 5 mM pH 7.4 buffers and 1.2 ml of deoxycholate (0.54% in water) are added. After incubation for 30 minutes at +4° C. with gentle agitation, the suspension is centrifuged at 105 000×g for 75 minutes. The supernatant comprising the soluble MTP is dialysed against Tris/HCl 150 mM, NaCl 40 mM, EDTA 1 mM, 0.02% sodium azide pH 7.4 buffer (5 times one litre over 2-3 days). The MTP is stored at +4° C., is stable for at least 30 days and is used in unmodified form in the test.
The donor particles (liposomes) are prepared from 208 μl of L-phosphatidylcholine at a concentration of 10 mg/ml in chloroform, and 480 μl of [3H]-triolein at a concentration of 0.5 mCi/ml in toluene. After stirring, the solution is evaporated under nitrogen, taken up in 6 ml of Tris/HCl 50 mM, KCl 50 mM, MgCl2 5 mM pH 7.4 buffer and incubated in an ultrasound bath for 30 minutes at room temperature. The liposomes are stored at +4° C. and sonicated again for 10 minutes before each use.
The acceptor particles are biotinylated low density lipoproteins (LDL-biot). These particles are supplied by the company Amersham.
The reaction mixture is prepared in untreated ½ well white plates (Corning Costar) by addition, in the following order, of: 5 μl of HEPES 50 mM, NaCl-150 mM, BSA 0.1% (w/v), 0.05% sodium azide (w/v), pH 7.4 buffer; 5 μl of liposomes; 5 μl of LDL-biot; 5 μl of test products in DMSO; 5 μl of MTP. After incubation for 18-24 hours at 37° C., the reaction is stopped by adding 100 μl of Amersham SPA (scintillation proximity assay) beads coupled to streptavidin, and the radioactivity is counted using a Top Count (Packard) machine at least one hour later. The inhibition of the transfer of the triglycerides with a compound is reflected by a reduction in the transferred radioactivity.
The results are expressed in terms of the IC50, i.e. the concentration that allows a 50% inhibition of MTP.
(In general: Liver microsomes are a subcellular fraction often used to study metabolism.)

The test system of test [2] is apo B secretion in HepG2 cells. The test can be described thus: Secretion of apo B in the HepG2 human cell line (sandwich ELISA). The format is cell-based. Particulars: 24 hours incubation, culture supernatant, ELISA for human apo B, read-out: IC50 (concentration that produces a 50% inhibition of apo B secretion in the HepG2 cells). How it is done:
Analysis of the Secretion of Apo B in the HepG2 Human Cell Line:
The activity of a compound according to the invention can be evaluated by measuring the inhibition of apo B secretion in HepG2 cells.
The HepG2 cells (ECACC-No. 85011430) are used as model in the study of the in vitro hepatic secretion of lipoproteins (Dixon J. and Ginsberg H., J. Lipid. Res., 1993, 34, 167-179).
The HepG2 cells are cultured in Dulbecco's modified Eagle's medium comprising 10% foetal calf serum (DMEM and FBS-Gibco) in 96-well plates under an atmosphere of 5% carbon dioxide for 24 hours (about 70% confluence).
The test compounds are dissolved at a concentration of 2 or 10 mM in dimethyl sulfoxide (DMSO). Serial dilutions (1:3.16) are made in DMSO and are:added (1:200—Robot Multimek Beckman) to the growth medium (200 μl) and then finally incubated for 24 hours in the various wells containing the HepG2 cells.
The 24-hour culture supernatant diluted to 1:5 (phosphate-buffered saline: PBS comprising 1% bovine serum albumin) is tested according to a sandwich-ELISA method specific for human apo B.
The results are expressed in terms of IC50, i.e. the concentration that produces a 50% inhibition of apo B secretion in the HepG2 cells.
In general terms: ELISA stands for enzyme-linked immunosorbent assay.

With `CCn1c(-c2csc(C3CCN(C(=O)c4ccccc4-c4ccc(C(F)(F)F)cc4)CC3)n2)nc(-c2ccccc2)c1C` [Example 3, {4-[4-(1-ethyl-5-methyl-4-phenyl-1H-imidazol-2-yl)thiazol-2-yl]piperid-1-yl}(4′-trifluoromethylbiphenyl-2-yl)methanone], the IC50 in test [1] stood at 270 nM; in test [2] it was 390 nM. For the compound `CCn1c(-c2csc(C3CCN(C(=O)c4ccccc4-c4ccc(C(F)(F)F)cc4)CC3)n2)nc(-c2ccccn2)c1C` [Example 5, {4-[4-(1-ethyl-5-methyl-4-(pyrid-2-yl)-1H-imidazol-2-yl)thiazol-2-yl]-piperid-1-yl}(4′-trifluoromethylbiphenyl-2-yl)methanone], the values for the IC50 in test [1] and in test [2] were 2540 nM and 2620 nM, respectively. For `CCn1c(-c2csc(C3CCN(C(=O)c4ccccc4-c4ccc(C(F)(F)F)cc4)CC3)n2)nc(-c2cccnc2)c1C` [Example 4, {4-[4-(1-ethyl-5-methyl-4-(pyrid-3-yl)-1H-imidazol-2-yl)thiazol-2-yl]-piperid-1-yl}(4′-trifluoromethylbiphenyl-2-yl)methanone], in that order: 816 nM and 1570 nM. In the case of `CCn1c(-c2csc(C3CCN(C(=O)c4cccc(C)c4-c4ccc(OC(F)(F)F)cc4)CC3)n2)nc(-c2ccccc2)c1C` [Example 1, {4-[4-(1-Ethyl-5-methyl-4-phenyl-1H-imidazol-2-yl)thiazol-2-yl]piperid-1-yl}(6-methyl-4′-trifluoromethoxybiphenyl-2-yl)methanone], the IC50 was 320 nM in test [1] and 369 nM in test [2]. With `CCn1c(-c2csc(C3CCCN(C(=O)c4ccccc4-c4ccc(C(F)(F)F)cc4)C3)n2)nc(-c2ccccc2)c1C` (stereo not shown) [Example 7, {3-[4-(1-ethyl-5-methyl-4-phenyl-1H-imidazol-2-yl)thiazol-2-yl]piperid-1-yl}(4′-trifluoromethylbiphenyl-2-yl)methanone], in test [2], the IC50 was found to be 2090 nM. For `Cc1c(-c2ccccc2)nc(-c2csc(C3CCN(C(=O)c4ccccc4-c4ccc(C(F)(F)F)cc4)CC3)n2)n1C` [Example 2, {4-[4-(1,5-dimethyl-4-phenyl-1H-imidazol-2-yl)thiazol-2-yl]piperid-1-yl}(4′-trifluoromethylbiphenyl-2-yl)methanone], the IC50 in test [1] is 300 nM; in test [2] it was 616 nM.

Take `CCn1c(-c2csc(C3CCN(C(=O)c4cccc(C)c4-c4ccc(OC(F)(F)F)cc4)CC3)n2)nc(-c2ccccn2)c1C` [Example 6, {4-[4-(1-ethyl-5-methyl-4-(pyrid-2-yl)-1H-imidazol-2-yl)thiazol-2-yl]-piperid-1-yl}(6-methyl-4′-trifluoromethoxybiphenyl-2-yl)methanone]: the IC50 in test [1] came out at 1830 nM; in test [2], 2300 nM.
